The test system of one test is Ba/F3 KIT mutant cells. The test can be described thus: Ba/F3 mutant KIT Cell Proliferation Assays (resazurin). Particulars: Mus musculus, BaF3. The class given is cell-based. An outline of the steps: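 IC50 values come from resazurin fluorescence (ex 540, em 600) after 5 h dye exposure, added as a 440 μM solution. Cells were IL-3-independent Ba/F3 expressing mutant KIT from a lentiviral vector, puromycin-selected.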
For orientation: Resazurin is reduced to fluorescent resorufin, in cell work by metabolically active cells.

The next test has as its system GIST 430 cells. Kind of test: GIST 430 Cell Proliferation Assay (resazurin). The class given is cell-based. Particulars: Homo sapiens; GIST430 cell proliferation. The method, boiled down: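 Five thousand cells per well were exposed to serially diluted compound in complete growth medium for 115 h at 37 degrees Celsius, 5% CO2. Resazurin was then added for a further 5 h, fluorescence read at 540 nm excitation/600 nm emission, and IC50 values calculated.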

A further test has as its target c-KIT kinase (uKIT) (Homo sapiens (Human), UniProt P10721). Kind of test: Biochemical Assay for uKIT (coupled pyruvate kinase/lactate dehydrogenase assay). Particulars: Inhibition of biochemical activity of uKIT kinase; 1 mM ATP. An outline of the steps:
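Continuous coupled PK/LDH assay following NADH oxidation at 340 nm for 6 h at 30° C, with 16 nM or 4.36 nM KIT (two constructs), 0.7 mg/mL PE4Y, 1 mM ATP, pH 7.5. Rates from the 2-3 h window converted to percent inhibition versus controls; IC50 fitted.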

[1] abbreviates: Ba/F3 KIT AYdup-V654A mutant cell proliferation, read-out: AYdup-V654A IC50.
Setting [2] is: Ba/F3 KIT exon11del-V654A mutant cell proliferation, read-out: exon11del-V654A IC50.
Where [3] appears, read: Ba/F3 KIT exon11del-Y823D mutant cell proliferation, read-out: exon11del-Y823D IC50.
Where [4] appears, read: Ba/F3 KIT AYdup mutant cell proliferation, read-out: AYdup IC50.
[5] abbreviates: Ba/F3 KIT AYdup-D816G mutant cell proliferation, read-out: AYdup-D816G IC50.

Structures are written as SMILES. Like-named read-outs stand apart in the source and are kept apart here.

c-KIT kinase (uKIT), sequence (P10721 other isoform, or with tags, fused parts or gaps): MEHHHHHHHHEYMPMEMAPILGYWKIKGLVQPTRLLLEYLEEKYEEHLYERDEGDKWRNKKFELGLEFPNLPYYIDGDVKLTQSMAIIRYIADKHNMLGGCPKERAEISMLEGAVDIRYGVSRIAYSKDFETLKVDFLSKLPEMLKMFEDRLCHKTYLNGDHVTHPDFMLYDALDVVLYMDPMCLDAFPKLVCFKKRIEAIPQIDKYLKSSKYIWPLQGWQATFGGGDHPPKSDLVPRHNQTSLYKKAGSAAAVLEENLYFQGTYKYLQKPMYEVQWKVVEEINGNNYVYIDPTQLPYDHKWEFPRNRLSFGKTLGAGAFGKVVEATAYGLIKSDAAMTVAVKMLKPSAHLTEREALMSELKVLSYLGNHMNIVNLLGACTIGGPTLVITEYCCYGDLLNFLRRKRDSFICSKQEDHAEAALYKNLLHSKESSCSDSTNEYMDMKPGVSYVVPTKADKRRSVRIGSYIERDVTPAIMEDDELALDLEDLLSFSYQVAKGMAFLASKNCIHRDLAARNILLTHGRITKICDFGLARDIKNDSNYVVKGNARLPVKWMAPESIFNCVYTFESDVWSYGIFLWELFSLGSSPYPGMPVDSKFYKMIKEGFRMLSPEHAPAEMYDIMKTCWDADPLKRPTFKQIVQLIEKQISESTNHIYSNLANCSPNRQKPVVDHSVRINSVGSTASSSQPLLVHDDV

Broadly, the IC50 is the concentration that gives 50% inhibition. For `COC[C@H](C)Oc1cc(F)c2c(Nc3ccc(NC(=O)NCCC(C)(C)F)cc3)ncnc2c1` [Example 157], the IC50 is 100 to 1000 nM in the test on Ba/F3 KIT mutant cells (setting [1]); 100 to 1000 nM in the test with Ba/F3 KIT mutant cells (setting [2]); 100 to 1000 nM with Ba/F3 KIT mutant cells (setting [3]); 100 to 1000 nM with GIST 430 cells; 10 to 100 nM on c-KIT kinase (uKIT).

`COCCOc1cc(F)c2c(Nc3ccc(NC(=O)COCC4CCOC4)cc3)ncnc2c1` (stereo not drawn) [Example 59]: the IC50 with Ba/F3 KIT mutant cells (setting [1]) was 100 to 1000 nM; in the test with Ba/F3 KIT mutant cells (setting [2]), 10 to 100 nM; with Ba/F3 KIT mutant cells (setting [3]) it was more than 1000 nM; with GIST 430 cells it was 10 to 100 nM; on c-KIT kinase (uKIT), 10 to 100 nM.

As to `CC(C)(F)CCNC(=O)Nc1ccc(Nc2ncnc3cc(OCCCN4CCCC4)cc(F)c23)cc1` [Example 158], the IC50 in the test on Ba/F3 KIT mutant cells (setting [4]) is not above 10 nM; in the test with Ba/F3 KIT mutant cells (setting [5]), not above 10 nM; with Ba/F3 KIT mutant cells (setting [1]) it was not above 10 nM; in the test with Ba/F3 KIT mutant cells (setting [2]), 10 to 100 nM; in the test on Ba/F3 KIT mutant cells (setting [3]), 10 to 100 nM; in the test with GIST 430 cells, 10 to 100 nM. In addition, on c-KIT kinase (uKIT), the IC50 was not above 10 nM.

`COCCOc1cc(OC)c2c(Nc3ccc(NC(=O)CC(=O)NC4CCCC4)cc3)ncnc2c1` [Example 176]: the IC50 in the test with Ba/F3 KIT mutant cells (setting [4]) lay within 10 to 100 nM; with Ba/F3 KIT mutant cells (setting [5]), 10 to 100 nM; with Ba/F3 KIT mutant cells (setting [1]) it was 10 to 100 nM; in the test on Ba/F3 KIT mutant cells (setting [2]) it was 100 to 1000 nM; with Ba/F3 KIT mutant cells (setting [3]), 10 to 100 nM; in the test on GIST 430 cells, 10 to 100 nM. In addition, the IC50 against c-KIT kinase (uKIT) fell in the range of 10 to 100 nM.

For the molecule `COCCOc1cc(F)c2c(Nc3ccc(NC(=O)CC(=O)N(C)CC(C)(C)C)cc3)ncnc2c1` [Example 51], the IC50 in the test with Ba/F3 KIT mutant cells (setting [4]) is 10 to 100 nM; in the test on Ba/F3 KIT mutant cells (setting [5]), 10 to 100 nM; with Ba/F3 KIT mutant cells (setting [1]), 10 to 100 nM; in the test with Ba/F3 KIT mutant cells (setting [2]), 10 to 100 nM; in the test on Ba/F3 KIT mutant cells (setting [3]) it was 10 to 100 nM; in the test on GIST 430 cells, not above 10 nM. The molecule further came in with an IC50 at c-KIT kinase (uKIT) of 10 to 100 nM.

With `COCCOc1cc(F)c2c(Nc3ccc(NC(=O)NC4CCC(C)(C)C4)cc3)ncnc2c1` (stereo not drawn) [Example 34], the IC50 in the test on Ba/F3 KIT mutant cells (setting [5]) was not above 10 nM; in the test on Ba/F3 KIT mutant cells (setting [1]), 10 to 100 nM; in the test with Ba/F3 KIT mutant cells (setting [2]), not above 10 nM; with Ba/F3 KIT mutant cells (setting [3]) it was 10 to 100 nM; with GIST 430 cells it was 10 to 100 nM; at c-KIT kinase (uKIT), not above 10 nM.

Take `COCCOc1cc(F)c2c(Nc3ccc(NC(=O)C(F)(F)C(=O)NCC(C)(C)C)cc3)ncnc2c1` [Example 60]: the IC50 in the test with Ba/F3 KIT mutant cells (setting [1]) was 10 to 100 nM; in the test with Ba/F3 KIT mutant cells (setting [2]), 10 to 100 nM; in the test with Ba/F3 KIT mutant cells (setting [3]), 100 to 1000 nM; with GIST 430 cells it was 10 to 100 nM; against c-KIT kinase (uKIT), 10 to 100 nM.

For `CC(C)(F)CCNC(=O)Nc1ccc(Nc2ncnc3cc(OCCC4COC4)cc(F)c23)cc1` [Example 159], the IC50 in the test on Ba/F3 KIT mutant cells (setting [1]) was 10 to 100 nM; in the test with Ba/F3 KIT mutant cells (setting [2]), 10 to 100 nM; with Ba/F3 KIT mutant cells (setting [3]), 10 to 100 nM; with GIST 430 cells, 10 to 100 nM; at c-KIT kinase (uKIT), not above 10 nM.

For the molecule `COCCOc1cc(F)c2c(Nc3ccc(NC(=O)CC(=O)N[C@H]4C[C@H](OC)C4)cc3)ncnc2c1` [Example 117], the IC50 with Ba/F3 KIT mutant cells (setting [1]) was 10 to 100 nM; with Ba/F3 KIT mutant cells (setting [2]), 10 to 100 nM; in the test with Ba/F3 KIT mutant cells (setting [3]) it was more than 1000 nM; with GIST 430 cells, 10 to 100 nM; on c-KIT kinase (uKIT), 100 to 1000 nM.

Turning to `CC(C)(F)CCNC(=O)Nc1ccc(Nc2ncnc3cc(OCCCN4CCOCC4)cc(F)c23)cc1` [Example 195], the IC50 in the test on Ba/F3 KIT mutant cells (setting [1]) is 10 to 100 nM; in the test on Ba/F3 KIT mutant cells (setting [2]), 10 to 100 nM; with Ba/F3 KIT mutant cells (setting [3]), 10 to 100 nM; in the test with GIST 430 cells, not above 10 nM; on c-KIT kinase (uKIT) it was not above 10 nM.

`COCCOc1cc(F)c2c(Nc3ccc(NC(=O)NCCC(C)(C)F)cc3)ncnc2c1` [Example 2, 1-(3-fluoro-3-methylbutyl)-3-(4-((5-fluoro-7-(2-methoxyethoxy)quinazolin-4-yl)amino)phenyl)urea]: the IC50 in the test with Ba/F3 KIT mutant cells (setting [4]) is not above 10 nM; in the test with Ba/F3 KIT mutant cells (setting [5]), 10 to 100 nM; in the test on Ba/F3 KIT mutant cells (setting [1]), 10 to 100 nM; in the test with Ba/F3 KIT mutant cells (setting [2]), 10 to 100 nM; with Ba/F3 KIT mutant cells (setting [3]), 100 to 1000 nM; in the test on GIST 430 cells, 10 to 100 nM. At c-KIT kinase (uKIT), the IC50 was not above 10 nM.

As for `CC(C)(F)CCNC(=O)Nc1ccc(Nc2ncnc3cc(OC[C@@H]4CCCO4)cc(F)c23)cc1` [Example 162], the IC50 with Ba/F3 KIT mutant cells (setting [4]) is not above 10 nM; with Ba/F3 KIT mutant cells (setting [5]), 10 to 100 nM; in the test on Ba/F3 KIT mutant cells (setting [1]), 10 to 100 nM; with Ba/F3 KIT mutant cells (setting [2]), 10 to 100 nM; with Ba/F3 KIT mutant cells (setting [3]), 10 to 100 nM; in the test with GIST 430 cells, 10 to 100 nM. Besides, the IC50 against c-KIT kinase (uKIT) was not above 10 nM.

As for `COCCOc1cc(F)c2c(Nc3ccc(NC(=O)CCCC(C)(C)F)cc3)ncnc2c1` [Example 45], the IC50 in the test on Ba/F3 KIT mutant cells (setting [4]) was not above 10 nM; in the test with Ba/F3 KIT mutant cells (setting [5]) it was 10 to 100 nM; in the test on Ba/F3 KIT mutant cells (setting [1]) it was 10 to 100 nM; in the test with Ba/F3 KIT mutant cells (setting [2]) it was 10 to 100 nM; in the test with Ba/F3 KIT mutant cells (setting [3]), 100 to 1000 nM; with GIST 430 cells, not above 10 nM. On c-KIT kinase (uKIT), this molecule had an IC50 not above 10 nM.

The record behind these values is patent US20240116877A1, “KIT KINASE INHIBITORS AND METHODS OF USE THEREOF” (Deciphera Pharmaceuticals, LLC, priority 2021, published 2024).
